Assay: gradient 5% acetonitrile 3 min, to 50% in 2 min, to 85% in 15 min, held 3 min, 100 µL/min
Details: column: Zorbax Extend-C18 2.1 x 50 mm; eluents: water / acetonitrile, 0.1% formic acid
Procedure, shortened: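 Retention times come from adduct peaks that were picked computationally and then checked by hand. The standards, pure and pooled in mixtures of ~100 molecules, were run on a Zorbax Extend-C18 column (2.1 × 50 mm, 1.8 μm) at 100 μL/min with water and acetonitrile, each with 0.1% formic acid. Detection was by quadrupole time-of-flight mass spectrometry in positive and negative ionization mode, with a dead volume of 40 μL and a dwell volume of 900 μL.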

Row | SMILES | RP-LC retention time
1 | Cc1cccc(-c2noc(-c3ccc(N4CCN(Cc5ccc6c(c5)OCO6)CC4)nc3)n2)c1 | 848 s
2 | Cc1nc2c3ccccc3nc(NNC(=O)CCC(=O)N3CCN(c4ccccn4)CC3)n2n1 | 550 s
3 | O=C1N(c2ccccc2)CC12CCN(S(=O)(=O)c1ccccc1)CC2 | 957 s
4 | O=c1ccc(-c2ccccc2)nn1Cc1nc(-c2ccc3c(c2)OCO3)no1 | 959 s
5 | COc1cc(OC)cc(-c2nc(-c3cn(Cc4cccc(F)c4)nn3)no2)c1 | 1030 s
6 | O=C(COc1ccc(F)cc1)N1[C@H]2CC[C@@H]1c1cnc(-c3ccc(F)cc3)nc1C2 | 760 s
7 | Cc1ccc(C)c(S(=O)(=O)Nc2ccc3nc(N4CCN(CCC#N)CC4)cc(C(=O)O)c3c2)c1 | 631 s
8 | O=C1c2ccccc2S(=O)(=O)N1CC(O)COc1ccc(Cl)cc1Cl (configuration not stated) | 900 s
9 | CCc1nc(N)n(CC(=O)NCc2ccccc2Cl)c(=O)c1C | 616 s
10 | Cc1cc(=O)n(CC(=O)Nc2cc(F)ccc2C)c(N2CCCC2)n1 | 635 s
11 | CN(C)c1nc(C(=O)N2CCN(c3cccc(Cl)c3)CC2)nc2c1cnn2C | 818 s
12 | CCn1ccc(C(=O)N2CCN(C(=O)N3C[C@H]4C[C@H](C3)[C@H]3CCCC(=O)N3C4)CC2)n1 | 609 s
13 | CCCN(CCC)CCc1ccc(O)c(O)c1 | 602 s
14 | Cc1cc(NC(=O)CSc2nnnn2C)sn1 | 596 s
15 | CCOC(=O)Cc1cc(=O)c2cc(C)ccc2[nH]1 | 695 s
16 | COC(=O)c1ccc(C(=O)OC)c(=O)[nH]1 | 638 s
17 | COc1cc(NC(=O)c2cc(C)n3nc(C)cc3n2)cc(OC)c1OC | 847 s
18 | O=C(Nc1ccc(F)c(Cl)c1)Nc1nccn(-c2ccc(F)cc2)c1=O | 1010 s
19 | CN(CC1COCCO1)c1ccc(C(=O)O)cc1NC(=O)c1ccc(Cl)cc1 (configuration not stated) | 812 s
20 | O=C(c1ccc2c(c1)OCO2)N1CCN(c2nc(CN3CCCCC3)cs2)CC1 | 620 s
21 | O=C(Nc1ccc2nc3n(c(=O)c2c1)CCCCC3)C(=O)N1CCCC1 | 684 s
22 | COCCCNC(=O)N1CCCC1c1ccccc1Cl (configuration not stated) | 797 s

The next lines start with the values.

Row | RP-LC retention time | SMILES
23 | 715 s | O=C(c1ccc(F)cc1)N1CCC2(CC1)OCC(C(=O)N1CCCC1)N2C(=O)c1cccc(F)c1 (configuration not stated)
24 | 582 s | O=C(CC1CCN(C(=O)c2ccccc2)CC1)N1CCN(c2ccccn2)CC1
25 | 812 s | O=C(Nc1cccc2ccccc12)c1ccc(F)cc1
26 | 579 s | Cc1cccc(Nc2ccc(N3CCN(C(=O)c4cccs4)CC3)nn2)n1
27 | 964 s | COc1cccc(C(=O)NC2(C(F)(F)F)C(=O)N(C3CCCC3)C(C)=C2C(C)=O)c1 (configuration not stated)
28 | 729 s | COc1ccc(NC(=O)C2CCN(C(=O)C3Sc4ccccc4NC3=O)CC2)cc1 (configuration not stated)
29 | 600 s | CCn1c(CC2CCN(C(=O)Nc3ccc(C)cc3)C2)nc2cccnc21 (configuration not stated)
30 | 684 s | O=C(NCc1ccccc1Cl)C1CCN(c2cnc(N3CCCC3)nc2)CC1
31 | 1010 s | CCOC(=O)c1ccc(NS(=O)(=O)c2cc3n(c2)CCCNC3=O)cc1
32 | 1030 s | CCS(=O)(=O)N1CCCc2cc(C(=O)Nc3ccc(Br)cc3)ccc21
33 | 1280 s | Cc1ccsc1C(=O)N1CC(Oc2cccc(-c3nc(-c4ccccc4)no3)c2)C1
34 | 612 s | O=C(Nc1ccc(OCC(=O)N2CCCN(c3ncccn3)CC2)nc1)C1CC1
35 | 957 s | COc1ccc(C2NC(=O)NC(C)=C2C(=O)OCCc2ccccc2)c(OC)c1 (configuration not stated)
36 | 859 s | COc1ccccc1NC(=O)N1CCCC(C)(C(=O)NCc2ccccc2C)C1 (configuration not stated)
37 | 693 s | CCn1cc(-c2ccc(OC)cc2)cc1C(=O)NC(C)c1cccnc1 (configuration not stated)

Source: the METLIN SMRT retention time set (Domingo-Almenara et al. 2019)
